{"source": "patent US20150230462A1", "about": "“METHODS FOR IMPROVING GERMINATION AND STRESS TOLERANCE CHARACTERISTICS WITH JASMONATES” (New Biology, Inc., priority 2014, published 2015)", "key": {"[1]": {"test_system": "non-germinated seeds and resulting plants", "details": "U.S. Pat. No. 8,115,053 to Roberts et al.; treating non-germinated seeds; cited from earlier work"}, "seed germination": {"test_system": "seed germination", "details": "Norastehnia et al., Gen. Appl. Plant Physiology, 2007; cited from earlier work"}, "plants [2]": {"test_system": "plants", "details": "U.S. Patent Application Publication No. 2009/0082453; cited from earlier work"}, "plants [3]": {"test_system": "plants", "details": "U.S. Pat. Nos. 8,013,226 and 8,563,839; cited from earlier work"}, "[4]": {"test_system": "wheat (Triticum aestivum ‘Liquid Sunshine’) seeds", "assay": "Germinating wheat seeds (48 hours water soak) soaked 1 hour in MDHJ: germination at Day 6 (Example 28)", "type": "in vivo", "details": "for Percent of Seeds Germinated at Day 6, Wheat: 1 hour soak after 48 hours in water", "procedure": "(§1) Seeds of wheat (Triticum aestivum ‘Liquid Sunshine’), corn (‘Sugar Pearl’) and swiss chard (‘Peppermint Stick’) were soaked in water for 48 hours, immediately followed by a 1 hour soak in no MDHJ (untreated control, or UTC), 1.5 mM MDHJ or 7.5 mM MDHJ. Seeds were then rinsed and placed between sheets of moistened paper towel and surrounded by a saran wrap tent to keep the germinating environment moist. There were 13-25 seeds for each treatment of each plant. At Day 6, seed germination was measured for each plant."}, "[5]": {"test_system": "Seeds of tomato (‘Crimson Carmello’)", "assay": "Germinating tomato seeds soaked 1 hour in MDHJ: percent germination, radicle length (Example 26)", "type": "in vivo", "details": "for Percent of Tomato Seeds Germinated, Day 5 / Percent of Tomato Seeds Germinated, Day 7: 1 hour soak of germinating seeds", "procedure": "Seeds of tomato (‘Crimson Carmello’) were soaked in water for 24 hours. After 24 hours, seeds were transferred to a solution containing water only (untreated control or UTC), 0.05 mM MDHJ, or 0.5 mM MDHJ in water. There were 8-9 seeds per treatment. After soaking for 1 hour, the seeds were rinsed in water and placed between two layers of water-moistened paper towel in a clear plastic covered tray. The trays were placed at room temperature with normal daylight conditions and allowed to germinate. At day 5 and 7, the percent of germinated seeds was obtained. At days 5 and 7, radicle length was measured in tomato seedlings (no coleoptiles were showing yet). At Day 5 and 7, radicle length was measured in millimeters."}, "Sugar snap pea seeds": {"test_system": "Sugar snap pea seeds", "assay": "Sugar snap pea seeds treated with MDHJ soak solutions with wetting agent: seeds germinated (Example 3)", "type": "in vivo", "procedure": "Non-germinated seeds of the hybrid corn varietal “Early Sun Glow” were treated with MDHJ by soaking for 24 hours in 50 mL conical vessels in one of four treatment solutions. During the soak, the seeds spent 12 hours in typical lighting conditions and 12 hours in darkness. The four treatment solutions are set forth below in Table 5. In Table 5, COCO-WET® is a wetting agent sold by Spray-N-Grow, Inc. of Rockport, Tex. On Day 2, 4 2-inch pots were planted with three seeds each, for a total of 12 seeds per treatment. Germination of the potted seeds was measured at days 8 and 15. Sugar snap pea seeds were treated according to the procedure in Example 2. The number of seeds germinated were counted at days 8 and 15 after treatment."}, "plants [6]": {"test_system": "plants", "details": "U.S. Patent Application Publication No. 2009/0133166; cited from earlier work"}, "[7]": {"test_system": "Seeds of Redina lettuce (Lechuga redina)", "assay": "Redina lettuce seeds treated with MDHJ soak solutions with wetting agent (Example 4)", "type": "in vivo", "procedure": "Non-germinated seeds of the hybrid corn varietal “Early Sun Glow” were treated with MDHJ by soaking for 24 hours in 50 mL conical vessels in one of four treatment solutions. During the soak, the seeds spent 12 hours in typical lighting conditions and 12 hours in darkness. The four treatment solutions are set forth below in Table 5. In Table 5, COCO-WET® is a wetting agent sold by Spray-N-Grow, Inc. of Rockport, Tex.\nSeeds of Redina lettuce (Lechuga redina) were treated with MDHJ according to the protocol of Example 2."}, "[8]": {"test_system": "swiss chard (‘Peppermint Stick’) seeds", "assay": "Germinating swiss chard seeds (48 hours water soak) soaked 1 hour in MDHJ: germination at Day 6 (Example 28)", "type": "in vivo", "details": "for Percent of Seeds Germinated at Day 6, Swiss Chard: 1 hour soak after 48 hours in water", "procedure": "as §1"}, "[9]": {"test_system": "Seeds of corn (‘Sugar Pearl’)", "assay": "Planted germinating corn seeds, soil sprayed with MDHJ: seedling emergence and plant height (Example 29)", "type": "in vivo", "details": "for Percent Seedling Emergence: 12.5 ml/pot sprayed on soil two days after planting, 21 days after planting, n=16", "procedure": "Seeds of corn (‘Sugar Pearl’) were soaked in water for 48 hours and subsequently planted 1-inch deep in potting soil in 6-inch pots. Two days after planting, the soil was sprayed with 12.5 ml/pot of 0 mM (UTC), 0.75 mM or 7.5 mM MDHJ. There were 8 seeds planted per pot and two pots for each treatment (n=16). Germination was recorded 21 days after planting, and plant height measured 24 days after planting."}, "[10]": {"test_system": "Seeds of wheat (Triticum aestivum ‘Liquid Sunshine’)", "assay": "Germinating wheat seeds soaked 1 hour in MDHJ: percent germination, coleoptile length (Example 27)", "type": "in vivo", "details": "for Percent of Wheat Seeds Germinated at Day 7: 1 hour soak after 24 hours in water", "procedure": "Seeds of wheat (Triticum aestivum ‘Liquid Sunshine’) were soaked in water for 24 hours. After 24 hours, seeds were transferred to a solution containing water only (untreated control or UTC), 0.05 mM MDHJ, 0.5 mM MDHJ, or 5.0 mM MDHJ in water. There were 16-20 seeds per treatment. After soaking for 1 hour, the seeds were rinsed in water and placed between two layers of water-moistened paper towel in a clear plastic covered tray. The trays were placed at room temperature with normal daylight conditions and allowed to germinate. At day 7, the percent of germinated seeds was obtained and coleoptile length was measured."}, "[11]": {"test_system": "corn (‘Sugar Pearl’) seeds", "assay": "Germinating corn seeds (48 hours water soak) soaked 1 hour in MDHJ: germination at Day 6 (Example 28)", "type": "in vivo", "details": "for Percent of Seeds Germinated at Day 6, Corn: 1 hour soak after 48 hours in water", "procedure": "as §1"}}, "note": "“Also recorded” adds a separate entry of the source.", "data": [{"smiles": "CC/C=C\\CC1C(=O)CCC1CC(=O)OC", "note": "(centres unmarked) [methyl jasmonate]", "values": [{"measurement": "pest resistance in the resulting plants", "setting": "[1]", "result": "increases pest resistance in the resulting plants up to 10 weeks after sowing"}, {"measurement": "seed germination", "setting": "seed germination", "result": "inhibits seed germination"}]}, {"smiles": "CC/C=C\\CC1C(=O)CCC1CC(=O)O", "note": "(centres unmarked) [jasmonic acid, 2-(3-oxo-2-(pent-2-enyl)cyclopentyl)acetic acid]", "values": [{"measurement": "pest resistance in the resulting plants", "setting": "[1]", "result": "increases pest resistance in the resulting plants up to 10 weeks after sowing"}]}, {"smiles": "CCCCCC1C(=O)CCC1CC(=O)OC", "note": "(centres unmarked) [MDHJ, methyl dihydrojasmonate]", "values": [{"measurement": "biotic attack", "setting": "plants [2]", "result": "effective in reducing biotic attack and disease in plants; also recorded: surprisingly effective at preventing biotic attack"}, {"measurement": "chlorosis and necrosis of leaf senescence", "setting": "plants [3]", "result": "can reduce the chlorosis and necrosis of leaf senescence"}, {"measurement": "Percent of Seeds Germinated at Day 6, Wheat", "setting": "[4]; 1.5 mM MDHJ", "result": 100, "unit": "%"}, {"measurement": "General Observation, Wheat", "setting": "[4]; 1.5 mM and 7.5 mM MDHJ", "result": "seedlings were stunted"}, {"measurement": "Percent of Seeds Germinated at Day 6, Wheat", "setting": "[4]; 7.5 mM MDHJ", "result": 100, "unit": "%"}, {"measurement": "Percent of Tomato Seeds Germinated, Day 5", "setting": "[5]; 0.05 mM MDHJ", "result": 87.5, "unit": "%"}, {"measurement": "Percent of Tomato Seeds Germinated, Day 7", "setting": "[5]; 0.05 mM MDHJ", "result": 100, "unit": "%"}, {"measurement": "Seed germination percentage", "setting": "[5]; 0.5 mM MDHJ", "result": "enhanced"}, {"measurement": "Percent of Tomato Seeds Germinated, Day 5", "setting": "[5]; 0.50 mM MDHJ", "result": 100, "unit": "%"}, {"measurement": "Percent of Tomato Seeds Germinated, Day 7", "setting": "[5]; 0.50 mM MDHJ", "result": 100, "unit": "%"}, {"measurement": "radicle length compared to untreated seeds", "setting": "[5]; 0.5 mM MDHJ, by day 7, FIG. 4", "result": "increase in radicle length compared to untreated seeds"}, {"measurement": "adverse effect on germination", "setting": "Sugar snap pea seeds; MDHJ concentrations under 1.5 mM", "result": "not to adversely affect germination"}, {"measurement": "germination benefit from MDHJ exposure", "setting": "Sugar snap pea seeds; in vivo", "result": "no germination benefit was seen"}, {"measurement": "flowering characteristics", "setting": "plants [6]", "result": "improves flowering characteristics"}, {"measurement": "adverse effects on germination", "setting": "[7]; 15 days after treatment, MDHJ at concentrations below 1.5 mM", "result": "no adverse effects on germination; also recorded: not to adversely affect germination"}, {"measurement": "germination benefit from MDHJ exposure", "setting": "[7]; in vivo", "result": "no germination benefit was seen"}, {"measurement": "germination", "setting": "[8]; 1.5 mM MDHJ", "result": "improved"}, {"measurement": "Percent of Seeds Germinated at Day 6, Swiss Chard", "setting": "[8]; 1.5 mM MDHJ", "result": 77, "unit": "%"}, {"measurement": "Percent of Seeds Germinated at Day 6, Swiss Chard", "setting": "[8]; 7.5 mM MDHJ", "result": 58, "unit": "%"}, {"measurement": "Percent Seedling Emergence", "setting": "[9]; 0.75 mM MDHJ", "result": 63, "unit": "%"}, {"measurement": "germination compared to the untreated control", "setting": "[9]; 0.75 mM-treated seed", "result": "increased germination"}, {"measurement": "Percent Seedling Emergence", "setting": "[9]; 7.50 mM MDHJ", "result": 50, "unit": "%"}, {"measurement": "germination compared to the untreated control", "setting": "[9]; 7.5 mM treated seed", "result": "no germination inhibition"}, {"measurement": "growth (plant height, words)", "setting": "[9]; FIG. 6, 24 days after planting, 0.75 mM or 7.5 mM", "result": "did not inhibit growth"}, {"measurement": "seed germination percentage compared to the untreated control", "setting": "[10]; 0.05 mM MDHJ", "result": "increased seed germination percentage"}, {"measurement": "Percent of Wheat Seeds Germinated at Day 7", "setting": "[10]; 0.05 mM MDHJ", "result": 95, "unit": "%"}, {"measurement": "coleoptile length", "setting": "[10]; 0.05 mM MDHJ, FIG. 5", "result": "no decrease in coleoptile length"}, {"measurement": "Percent of Wheat Seeds Germinated at Day 7", "setting": "[10]; 0.50 mM MDHJ", "result": 53, "unit": "%"}, {"measurement": "germination and coleoptile growth", "setting": "[10]; 0.5 mM and above, FIG. 5", "result": "inhibition of germination and coleoptile growth"}, {"measurement": "Percent of Wheat Seeds Germinated at Day 7", "setting": "[10]; 5.00 mM MDHJ", "result": 55, "unit": "%"}, {"measurement": "coleoptiles and radicles", "setting": "[10]; 5.0 mM treatment", "result": "too short to measure"}, {"measurement": "rate of seed germination in wheat", "setting": "[10]; concentrations below 0.5 mM, germinating wheat in paper towel", "result": "beneficial for improved rate of seed germination"}, {"measurement": "germination", "setting": "[11]; 1.5 mM MDHJ", "result": "improved"}, {"measurement": "Percent of Seeds Germinated at Day 6, Corn", "setting": "[11]; 1.5 mM MDHJ", "result": 54, "unit": "%"}, {"measurement": "Percent of Seeds Germinated at Day 6, Corn", "setting": "[11]; 7.5 mM MDHJ", "result": 0.1, "unit": "%"}]}]}
